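Exposure lasted 48 hours, with cells grown in 96-well plates and compounds tested at five concentrations. GI50 marks 50% less growth. TGI denotes the concentration required for complete inhibition of growth.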
Tests used:
Assay in all cases: inhibition of tumour cell growth, NCI panel, 48 h
[1] = test system: CAKI-1 renal
[2] = test system: HCT-116 colon
[3] = test system: RXF 393 renal
[4] = test system: SF-539 CNS
[5] = test system: NCI-H23 lung
[6] = test system: HT29 colon
[7] = test system: K-562 leukemia
[8] = test system: CCRF-CEM leukemia
[9] = test system: OVCAR-5 ovarian
[10] = test system: 786-0 renal
[11] = test system: SK-MEL-28 melanoma
[12] = test system: MDA-MB-435
[13] = test system: A549 NSCLC
[14] = test system: IGROV1 ovarian
[15] = test system: MOLT-4 leukemia
[16] = test system: T-47D breast
[17] = test system: SF-268 CNS
[18] = test system: HL-60(TB) leukemia
[19] = test system: HCT-15 colon
[20] = test system: SK-OV-3 ovarian
[21] = test system: NCI-H522 lung
[22] = test system: DU-145 prostate
[23] = test system: SF-295 CNS
[24] = test system: NCI-H226 lung
[25] = test system: MDA-MB-468 breast
[26] = test system: HOP-92 NSCLC
[27] = test system: U251 CNS
[28] = test system: PC-3 prostate
[29] = test system: SNB-19 CNS
[30] = test system: BT-549 breast
[31] = test system: HCC-2998 colon
[32] = test system: HS 578T breast
[33] = test system: MDA-MB-231 breast
[34] = test system: KM12 colon
[35] = test system: MALME-3M melanoma
[36] = test system: EKVX NSCLC
[37] = test system: OVCAR-3 ovarian
[38] = test system: SN12C renal
[39] = test system: UO-31 renal
[40] = test system: NCI-H460 lung
[41] = test system: SK-MEL-2 melanoma
[42] = test system: UACC-62 melanoma
[43] = test system: ACHN renal
[44] = test system: OVCAR-4 ovarian
[45] = test system: UACC-257 melanoma
[46] = test system: SR leukemia
[47] = test system: RPMI-8226 leukemia
[48] = test system: TK-10 renal
[49] = test system: MCF7 breast
[50] = test system: LOX IMVI melanoma
[51] = test system: SNB-75 CNS
[52] = test system: OVCAR-8 ovarian
[53] = test system: COLO 205 colon
[54] = test system: HOP-62 NSCLC

CC1=C2C(=C[C@@](C)(CO)[C@@H]2O)/C(=N\N)[C@](C)(O)C12CC2
GI50 [1]: 2440 nM
TGI [1]: > 100000 nM
GI50 [2]: 1330 nM
TGI [2]: > 100000 nM
GI50 [3]: 1510 nM
TGI [3]: 3260 nM
GI50 [4]: 1850 nM
TGI [4]: 3830 nM
GI50 [5]: 1080 nM
TGI [5]: 2900 nM
GI50 [6]: 1940 nM
TGI [6]: 8750 nM
GI50 [7]: 2020 nM
TGI [7]: > 100000 nM
GI50 [8]: 2930 nM
TGI [8]: > 100000 nM
GI50 [9]: 518 nM
TGI [9]: 33800 nM
GI50 [10]: 2970 nM
TGI [10]: 9080 nM
GI50 [11]: 2040 nM
TGI [11]: 4110 nM
GI50 [12]: 2230 nM
TGI [12]: 5580 nM
GI50 [13]: 2390 nM
TGI [13]: 22800 nM
GI50 [14]: 2390 nM
TGI [14]: 7620 nM
GI50 [15]: 2400 nM
TGI [15]: > 100000 nM
GI50 [16]: 2200 nM
TGI [16]: 6710 nM
GI50 [17]: 2660 nM
TGI [17]: 21800 nM
GI50 [18]: 1440 nM
TGI [18]: 8870 nM
GI50 [19]: 1540 nM
TGI [19]: > 100000 nM
GI50 [20]: 2910 nM
TGI [20]: 7870 nM
GI50 [21]: 1190 nM
TGI [21]: 3640 nM
GI50 [22]: 812 nM
TGI [22]: 30500 nM
GI50 [23]: 1740 nM
TGI [23]: > 100000 nM
GI50 [24]: 2110 nM
TGI [24]: 7440 nM
GI50 [25]: 977 nM
TGI [25]: 2770 nM
GI50 [26]: 2540 nM
TGI [26]: 6750 nM
GI50 [27]: 416 nM
TGI [27]: > 100000 nM
GI50 [28]: 2550 nM
TGI [28]: 15300 nM
GI50 [29]: 2510 nM
TGI [29]: 8670 nM
GI50 [30]: 1690 nM
TGI [30]: 4430 nM
GI50 [31]: 1790 nM
TGI [31]: 3770 nM
GI50 [32]: 2880 nM
TGI [32]: 9440 nM
GI50 [33]: 2250 nM
TGI [33]: 6520 nM
GI50 [34]: 2980 nM
TGI [34]: > 100000 nM
GI50 [35]: 1700 nM
TGI [35]: 3250 nM
GI50 [36]: 2170 nM
TGI [36]: 5520 nM
GI50 [37]: 2630 nM
TGI [37]: 7050 nM
GI50 [38]: 2330 nM
TGI [38]: 6660 nM
GI50 [39]: 1650 nM
TGI [39]: 4660 nM
GI50 [40]: 420 nM
TGI [40]: 6630 nM
GI50 [41]: 1770 nM
TGI [41]: 3330 nM
GI50 [42]: 1740 nM
TGI [42]: 3230 nM
GI50 [43]: 860 nM
TGI [43]: 5180 nM
GI50 [44]: 2440 nM
TGI [44]: 7160 nM
GI50 [45]: 2250 nM
TGI [45]: 5190 nM
GI50 [46]: 2120 nM
TGI [46]: > 100000 nM
GI50 [47]: > 100000 nM
TGI [47]: > 100000 nM
GI50 [48]: 3100 nM
TGI [48]: 9250 nM
GI50 [49]: 405 nM
TGI [49]: > 100000 nM
GI50 [50]: 1620 nM
TGI [50]: 4990 nM
GI50 [51]: 1360 nM
TGI [51]: 4820 nM
GI50 [52]: 1860 nM
TGI [52]: 5120 nM
GI50 [53]: 1650 nM
TGI [53]: 3650 nM
GI50 [54]: 2230 nM
TGI [54]: 5320 nM

From PubChem BioAssay (NCI)
